Legend:
[1] = Apparent volume of distribution at central compartment in iv dosed patient (7 patients) with renal insufficiency; conditions: human, in vivo
[2] = Terminal half life in iv dosed patient with normal renal function; conditions: human, in vivo
[3] = Total body clearance in iv dosed patient (7 patients) with renal insufficiency; conditions: human, in vivo
[4] = Apparent first order elimination rate constant from the central compartment in iv dosed patient with normal renal function; conditions: human, in vivo
[5] = clinical; conditions: human, in vivo, po, 350 mg/kg
Description: Terminal half life in patient (7 patients) with renal insufficiency at 350 mg/kg, po

[6] = Half life in patient with normal renal function assessed as unchanged compound level using 14C labeled compound measured over 72 hrs; conditions: human, in vivo
[7] = Terminal half life in iv dosed patient (7 patients) with renal insufficiency; conditions: human, in vivo
[8] = clinical; conditions: human, in vivo, po, 50 mg/kg
Description: Terminal half life in patient (7 patients) with renal insufficiency at 50 mg/kg, po

[9] = Drug excretion in human assessed as unchanged parent compound level; conditions: in vivo
[10] = Disposition rate constant in iv dosed patient (7 patients) with renal insufficiency; conditions: human, in vivo
[11] = Apparent volume of distribution in beta-phase in iv dosed patient (7 patients) with renal insufficiency; conditions: human, in vivo
[12] = Apparent volume of distribution in beta-phase iv dosed patient with normal renal function; conditions: human, in vivo
[13] = Apparent volume of distribution at steady state in iv dosed patient (7 patients) with renal insufficiency; conditions: human, in vivo
[14] = Half life in patient (5 patients) with severe renal insufficiency assessed as unchanged compound level using 14C labeled compound measured over 72 hrs; conditions: human, in vivo
[15] = Apparent first order elimination rate constant from the central compartment in iv dosed patient (7 patients) with renal insufficiency; conditions: human, in vivo
[16] = Disposition rate constant in patient (7 patients) with renal insufficiency at 50 mg/kg, po; conditions: human, in vivo
[17] = Disposition rate constant in patient (7 patients) with renal insufficiency at 350 mg/kg, po; conditions: human, in vivo
[18] = Apparent volume of distribution at steady state in iv dosed patient with normal renal function; conditions: human, in vivo
[19] = Total body clearance in iv dosed patient with normal renal function; conditions: human, in vivo

`O=P1(N(CCCl)CCCl)NCCCO1` (centres undefined) [CYCLOPHOSPHAMIDE ANHYDROUS] showed a Vd [1] of 0.41 L/kg, a half-life [2] of 8.21 h and a clearance [3] of 0.0488 L/h/kg. It also gave a k el [4] of 4.86e-05 s⁻¹, a half-life [5] of 5.21 h and a half-life at 72 h [6] of 6.9 h. The half-life [7] was 10.2 h, the half-life [8] was 13.7 h and the dose excreted [9] was under 15%. The k el [10] was 1.94e-05 s⁻¹, the Vd [11] was 0.72 L/kg and the Vd [12] was 0.68 L/kg. It also gave a Vd [13] of 0.58 L/kg, a half-life at 72 h [14] of 14 h and a k el [15] of 3.36e-05 s⁻¹. The k el [16] was 1.42e-05 s⁻¹, the k el [17] was 1.92e-05 s⁻¹ and the Vd [18] was 0.73 L/kg. It also gave a clearance [19] of 0.0586 L/h/kg.

— ChEMBL document CHEMBL3785078 (Eur J Clin Pharmacol, 1981)
